Assay results published in patent US20210214303A1, “SCORPION VENOM BENZOQUINONE DERIVATIVES AND USES THEREOF” (priority 2018, published 2021).
≈ marks a conversion by molar mass, not a printed value. Entries after “also recorded” stand apart in the source; their conditions may differ.

Key:
Staphylococcus aureus [1] = experiment: disk-diffusion assay; assay type: cell-based
Description: Ampicillin (5 μg) was used as a positive control.
(§1) This difference was confirmed using a broth microdilution assay (FIG. 3D). The minimum inhibitory concentration (MIC) for S. aureus growth was 4 μg/mL for the red 1,4 benzoquinone and 6 μg/mL for the blue 1,4 benzoquinone (FIG. 3D, Table 1). Ampicillin (MIC=0.5 μg/mL) was used as a positive control (ESCMID Eo (2003) Clin. Microbiol. Infect. 9: ix-xv; Pieterse et al., (2010) Brazil. J. Microbiol. 41: 133-145). These compounds were bactericidal at their MICs, killing 90% of S. aureus in 6 h and 99.9% in 24 h (Table 2).

Staphylococcus aureus [2] = experiment: broth microdilution assay (MIC); assay type: cell-based; details: S. aureus, read-out: minimum inhibitory concentration (MIC)
Description: FIG. 3D illustrates the determination of the minimal inhibitory concentrations (MICs) of the red and blue 1,4 benzoquinones against Staphylococcus aureus. The MICs determined by the broth microdilution assay are 4 μg/mL for the red 1,4 benzoquinone and 6 μg/mL for the blue 1,4 benzoquinone. Ampicillin was used as a positive control. Each result is reported as the mean±SD.
as §1

[3] = system: Staphylococcus aureus ATCC 29213; experiment: Minimum inhibitory concentration, Table 1, strain ATCC 29213; assay type: cell-based; details: for sensitive/resistant (growth): ATCC 29213; for MIC: ATCC29213, Staphylococcus aureus ATCC 29213; on sensitive/resistant (growth): key: S Sensitive (did not grow the crop); R resistant (bacterial growth)
[4] = system: clinical isolates of methicillin-resistant S. aureus (MRSA); experiment: Minimum inhibitory concentration, Table 1, MRSA clinical isolates; assay type: cell-based, Staphylococcus aureus; on sensitive/resistant (growth): key: S Sensitive (did not grow the crop); R resistant (bacterial growth)
[5] = system: Mycobacterium tuberculosis H37Rv; experiment: microbe, parasite or virus in culture; assay type: cell-based; details: M. tuberculosis H37Rv, broth microdilution
fresh human erythrocytes = experiment: Hemolysis assay; assay type: cell-based; details: 2 hours, all concentrations tested (even higher than 100 μg/mL)
Description: FIG. 14A illustrates a cytotoxic activity assay of the red and blue 1,4 benzoquinones. Hemolysis was evaluated using fresh human erythrocytes. Lysis was evaluated by the absorbance of the supernatant at 415 nm after 2 hours of incubation with different concentrations of the 1,4 benzoquinones. Triton X-100 was used as positive control.
Hemolysis assay: The hemolytic activity was evaluated for both of the 1,4 benzoquinones using fresh human erythrocytes. Fresh human erythrocytes were washed four times with phosphate buffered saline (PBS) and incubated for 2 h at 37° C. with different concentration of the 1,4 benzoquinones. A gradient of Triton X-100 was used as positive control of hemolysis. After incubation, the erythrocytes suspension was centrifuged at 400×g for 10 min and supernatant was recovered. Hemolysis was determined by the absorbance of the supernatant at 415 nm.

TE671 muscle cells = experiment: detection of intracellular reactive oxygen species with DCFH-DA; assay type: cell-based; details: 25 μM, 6 hours
Description: FIG. 16A illustrates the detection of intracellular reactive oxygen species (ROS) using the oxidant-sensing probe dichloro-dihydro-fluorescein diacetate (DCFH-DA). TE671 muscle cells were used. Cells were cultured according to the ATCC guidelines. Before treatment, cells were incubated for one hour with a 10 μM solution of DCFH-DA. After the cells were washed 3×PBS, either the red or blue 1,4 benzoquinone was administered at a concentration of 25 μM. Cells were then incubated at 37° C. in 5% CO2 for 6 hours. Following the incubation period, cells were harvested and evaluated with a Zeiss Axioskop fluorescence microscope using a 485-nm excitation and 530-nm emission filter combination. […] Treatment with hydrogen peroxide (50 μM) was used as positive control.

Jurkat cells = experiment: Annexin V / viability dye flow cytometry apoptosis assay; assay type: cell-based; details: 25 μM; 0, 4, 8 and 12 h
Description: In this assay, Jurkat cells were incubated with either the red or blue 1,4 benzoquinone at a concentration of 25 μM for 0, 4, 8 and 12 h. Cells were then stained with the Fixable Viability Dye eFluor 780 and FITC Annexin V and analyzed using flow cytometry. Positive staining with Annexin V is a marker of early apoptosis, and positive staining with both Annexin V and the viability dye is a marker of late apoptosis/necrosis. Double negatives are live cells. Cells were grouped into three categories (live, early apoptotic, and late apoptotic/necrotic). Data from three independent experiments are shown as mean±SEM (standard error of mean).

## COC1=CC(=O)C(SC)=C(SC)C1=O [blue 1,4 benzoquinone, 5-methoxy-2,3-bis(methylthio)cyclohexa-2,5-diene-1,4-dione]
Staphylococcus aureus [1]
  inhibition of S. aureus growth: clear inhibition; also recorded: inhibitory activity
Staphylococcus aureus [2]
  MIC: 6 µg/mL (≈ 26.1 µM)
[3]; 0.5 μg/ml
  sensitive/resistant (growth): R
[3]; 1 μg/ml
  sensitive/resistant (growth): S
[3]; 2 μg/ml
  sensitive/resistant (growth): S
[3]; 4 μg/ml
  sensitive/resistant (growth): S
[3]; 8 μg/ml
  sensitive/resistant (growth): S
[3]; 16 μg/ml
  sensitive/resistant (growth): S
[3]; 32 μg/ml
  sensitive/resistant (growth): S
[3]; 64 μg/ml
  sensitive/resistant (growth): S
[3]
  MIC: 1 µg/mL (≈ 4.34 µM)
[4]; Staphylococcus aureus, MRSA
  MIC: > 64 µg/mL
[4]; strain 01 2075
  MIC: >64 µg/mL
[4]; strain 01 2075, 0.5 μg/ml
  sensitive/resistant (growth): R
[4]; strain 01 2075, 1 μg/ml
  sensitive/resistant (growth): R
[4]; strain 01 2075, 2 μg/ml
  sensitive/resistant (growth): R
[4]; strain 01 2075, 4 μg/ml
  sensitive/resistant (growth): R
[4]; strain 01 2075, 8 μg/ml
  sensitive/resistant (growth): R
[4]; strain 01 2075, 16 μg/ml
  sensitive/resistant (growth): R
[4]; strain 01 2075, 32 μg/ml
  sensitive/resistant (growth): R
[4]; strain 01 2075, 64 μg/ml
  sensitive/resistant (growth): R
[4]; strain 01 2104
  MIC: >64 µg/mL
[4]; strain 01 2104, 0.5 μg/ml
  sensitive/resistant (growth): R
[4]; strain 01 2104, 1 μg/ml
  sensitive/resistant (growth): R
[4]; strain 01 2104, 2 μg/ml
  sensitive/resistant (growth): R
[4]; strain 01 2104, 4 μg/ml
  sensitive/resistant (growth): R
[4]; strain 01 2104, 8 μg/ml
  sensitive/resistant (growth): R
[4]; strain 01 2104, 16 μg/ml
  sensitive/resistant (growth): R
[4]; strain 01 2104, 32 μg/ml
  sensitive/resistant (growth): R
[4]; strain 01 2104, 64 μg/ml
  sensitive/resistant (growth): R
[4]; strain 09 3001, 0.5 μg/ml
  sensitive/resistant (growth): R
[4]; strain 09 3001, 1 μg/ml
  sensitive/resistant (growth): R
[4]; strain 09 3001, 2 μg/ml
  sensitive/resistant (growth): R
[4]; strain 09 3001, 4 μg/ml
  sensitive/resistant (growth): R
[4]; strain 09 3001, 8 μg/ml
  sensitive/resistant (growth): R
[4]; strain 09 3001, 16 μg/ml
  sensitive/resistant (growth): R
[4]; strain 09 3001, 32 μg/ml
  sensitive/resistant (growth): R
[4]; strain 09 3001, 64 μg/ml
  sensitive/resistant (growth): R
[4]; strain 21 2001
  MIC: >64 µg/mL
[4]; strain 21 2001, 0.5 μg/ml
  sensitive/resistant (growth): R
[4]; strain 21 2001, 1 μg/ml
  sensitive/resistant (growth): R
[4]; strain 21 2001, 2 μg/ml
  sensitive/resistant (growth): R
[4]; strain 21 2001, 4 μg/ml
  sensitive/resistant (growth): R
[4]; strain 21 2001, 8 μg/ml
  sensitive/resistant (growth): R
[4]; strain 21 2001, 16 μg/ml
  sensitive/resistant (growth): R
[4]; strain 21 2001, 32 μg/ml
  sensitive/resistant (growth): R
[4]; strain 21 2001, 64 μg/ml
  sensitive/resistant (growth): R
[5]
  MIC: 4 µg/mL (≈ 17.4 µM)
Fresh human erythrocytes
  hemolytic activity: no erythrocyte hemolysis was observed; also recorded: Neither 1,4 benzoquinone showed hemolytic activity
TE671 muscle cells
  intracellular reactive oxygen species (oxidation of DCFH-DA): Intracellular oxidation of the DCFH-DA in cells treated with the 1,4 benzoquinones was observed
Jurkat cells
  apoptosis (Annexin V staining, loss of cell membrane asymmetry): triggers apoptosis

## COC1=CC(=O)C(SC)=C(OC)C1=O [red 1,4 benzoquinone, 3,5-dimethoxy-2-(methylthio)cyclohexa-2,5-diene-1,4-dione]
Staphylococcus aureus [1]
  inhibition of S. aureus growth: clear inhibition; also recorded: inhibitory activity
Staphylococcus aureus [2]
  MIC: 4 µg/mL (≈ 18.7 µM)
[3]; 0.5 μg/ml
  sensitive/resistant (growth): R
[3]; 1 μg/ml
  sensitive/resistant (growth): S
[3]; 2 μg/ml
  sensitive/resistant (growth): S
[3]; 4 μg/ml
  sensitive/resistant (growth): S
[3]; 8 μg/ml
  sensitive/resistant (growth): S
[3]; 16 μg/ml
  sensitive/resistant (growth): S
[3]; 32 μg/ml
  sensitive/resistant (growth): S
[3]; 64 μg/ml
  sensitive/resistant (growth): S
[3]
  MIC: 1 µg/mL (≈ 4.67 µM)
[4]; Staphylococcus aureus, MRSA
  MIC: > 64 µg/mL
[4]; strain 01 2075
  MIC: >64 µg/mL
[4]; strain 01 2075, 0.5 μg/ml
  sensitive/resistant (growth): R
[4]; strain 01 2075, 1 μg/ml
  sensitive/resistant (growth): R
[4]; strain 01 2075, 2 μg/ml
  sensitive/resistant (growth): R
[4]; strain 01 2075, 4 μg/ml
  sensitive/resistant (growth): R
[4]; strain 01 2075, 8 μg/ml
  sensitive/resistant (growth): R
[4]; strain 01 2075, 16 μg/ml
  sensitive/resistant (growth): R
[4]; strain 01 2075, 32 μg/ml
  sensitive/resistant (growth): R
[4]; strain 01 2075, 64 μg/ml
  sensitive/resistant (growth): R
[4]; strain 01 2104
  MIC: >64 µg/mL
[4]; strain 01 2104, 0.5 μg/ml
  sensitive/resistant (growth): R
[4]; strain 01 2104, 1 μg/ml
  sensitive/resistant (growth): R
[4]; strain 01 2104, 2 μg/ml
  sensitive/resistant (growth): R
[4]; strain 01 2104, 4 μg/ml
  sensitive/resistant (growth): R
[4]; strain 01 2104, 8 μg/ml
  sensitive/resistant (growth): R
[4]; strain 01 2104, 16 μg/ml
  sensitive/resistant (growth): R
[4]; strain 01 2104, 32 μg/ml
  sensitive/resistant (growth): R
[4]; strain 01 2104, 64 μg/ml
  sensitive/resistant (growth): R
[4]; strain 09 3001, 0.5 μg/ml
  sensitive/resistant (growth): R
[4]; strain 09 3001, 1 μg/ml
  sensitive/resistant (growth): R
[4]; strain 09 3001, 2 μg/ml
  sensitive/resistant (growth): R
[4]; strain 09 3001, 4 μg/ml
  sensitive/resistant (growth): R
[4]; strain 09 3001, 8 μg/ml
  sensitive/resistant (growth): R
[4]; strain 09 3001, 16 μg/ml
  sensitive/resistant (growth): R
[4]; strain 09 3001, 32 μg/ml
  sensitive/resistant (growth): R
[4]; strain 09 3001, 64 μg/ml
  sensitive/resistant (growth): R
[4]; strain 21 2001
  MIC: >64 µg/mL
[4]; strain 21 2001, 0.5 μg/ml
  sensitive/resistant (growth): R
[4]; strain 21 2001, 1 μg/ml
  sensitive/resistant (growth): R
[4]; strain 21 2001, 2 μg/ml
  sensitive/resistant (growth): R
[4]; strain 21 2001, 4 μg/ml
  sensitive/resistant (growth): R
[4]; strain 21 2001, 8 μg/ml
  sensitive/resistant (growth): R
[4]; strain 21 2001, 16 μg/ml
  sensitive/resistant (growth): R
[4]; strain 21 2001, 32 μg/ml
  sensitive/resistant (growth): R
[4]; strain 21 2001, 64 μg/ml
  sensitive/resistant (growth): R
[5]
  MIC: > 160 µg/mL
Fresh human erythrocytes
  hemolytic activity: no erythrocyte hemolysis was observed; also recorded: Neither 1,4 benzoquinone showed hemolytic activity
TE671 muscle cells
  intracellular reactive oxygen species (oxidation of DCFH-DA): Intracellular oxidation of the DCFH-DA in cells treated with the 1,4 benzoquinones was observed
Jurkat cells
  apoptosis (Annexin V staining, loss of cell membrane asymmetry): triggers apoptosis
